The target in data set [1] is T1, CYP2B6 (Homo sapiens, UniProt P20813).
T1 construct: with pooled human liver microsomes; from tissue; host or cells: pooled human liver microsomes
T1 sequence (P20813 1-491): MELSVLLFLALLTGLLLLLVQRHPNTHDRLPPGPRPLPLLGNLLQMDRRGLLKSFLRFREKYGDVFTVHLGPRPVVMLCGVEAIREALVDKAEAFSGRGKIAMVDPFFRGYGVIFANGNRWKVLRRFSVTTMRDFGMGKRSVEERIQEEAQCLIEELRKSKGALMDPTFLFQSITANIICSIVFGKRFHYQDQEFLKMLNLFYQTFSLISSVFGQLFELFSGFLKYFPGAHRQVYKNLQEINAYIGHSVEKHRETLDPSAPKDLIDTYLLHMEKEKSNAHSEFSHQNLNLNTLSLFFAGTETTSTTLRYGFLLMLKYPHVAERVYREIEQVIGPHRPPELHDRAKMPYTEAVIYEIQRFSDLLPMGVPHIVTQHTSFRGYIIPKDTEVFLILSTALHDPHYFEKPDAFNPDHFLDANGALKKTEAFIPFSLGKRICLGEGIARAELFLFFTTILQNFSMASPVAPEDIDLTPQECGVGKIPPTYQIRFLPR
The data set is described as follows: Cytochrome P450 inhibition in human liver microsomes using LC-MS/MS, CYP2B6. The class given is in vitro ADME. As for the experimental part:
(§1) In IC50 shift experiments, CK (0.2 μL prepared in DMSO) was pre-incubated for 30 min at 37° C., at 8 different concentrations, with pooled human liver microsomes (0.1-1 mg/mL, depending on which enzyme was assessed) in the absence or presence of 1 mM NADPH in 100 μL of potassium phosphate buffer (100 mM, pH 7.4) and MgCl2 (2.5 mM). After the pre-incubation, a substrate mixture containing a probe substrate in 100 μL of potassium phosphate buffer (100 mM, pH 7.4), MgCl2 (2.5 mM), and NADPH (1 mM) was added for measurement of the corresponding P450 activities. Incubations were terminated by addition of 200 μL methanol. Samples were then extracted and centrifuged and the supernatant was subjected to validated LC-MS/MS analysis.
A general note: Microsomes from liver hold many membrane-bound enzymes, among them those of drug oxidation.

Data set [2] has as its target T2, CYP2D6 (Homo sapiens, UniProt P10635).
T2 construct: with pooled human liver microsomes; from tissue; host or cells: pooled human liver microsomes
The data set is described as follows: Cytochrome P450 inhibition in human liver microsomes using LC-MS/MS, CYP2D6. The class given is in vitro ADME. As for the experimental part: as §1

For data set [3], the system named is HUVECs. The data set is described as follows: HUVEC cell viability by CCK-8 assay. The class given is cell-based, human. To be noted: 1 μM, 3 μM, and 10 μM alone for 24 h. Background: Tetrazolium dyes change colour on reduction, which living cells bring about.
In data set [4] the test system is IL-6. Nature of the data set: LPS-induced IL-6 expression in HUVECs. The class given is cell-based, human. To be noted: 1, 3, 10 μM for 1 h prior to LPS (1 μg/ml) stimulation for 24 h. As for the experimental part: HUVECs were treated for 1 h with ginsenoside CK (1 μM, 3 μM, and 10 μM) prior to LPS (1 μg/ml) stimulation for 24 h (A) IL-6 (B) TNF-αexpression. Values are means±SEM of 3 independent experiments. Statistical significance assessed by one-way ANOVA followed by Scheffe post-hoc test for multiple comparisons (***P<0.01, *P<0.05 vs LPS).
Treatment of HUVECs with LPS (1 μg/ml) increased IL-6 and TNF-αexpression. To determine whether LPS-induced IL-6 and TNF-αexpression was affected by ginsenoside CK, HUVECs were treated for 1 h with ginsenoside CK (1 μM, 3 μM, and 10 μM) prior to LPS (1 μg/ml) stimulation for 24 h.

The test system of data set [5] is ICAM-1. The data set is described as follows: LPS-induced ICAM-1 mRNA expression in HUVECs. To be noted: 1, 3, 10 μM for 1 h prior to LPS (1 μg/ml) stimulation for 24 h. The class given is cell-based, human. As for the experimental part: HUVECs were treated for 1 h with ginsenoside CK (1 μM, 3 μM, and 10 μM) prior to LPS (1 μg/ml) stimulation for 24 h. (A) ICAM-1 (B) VCAM-1 mRNA expression. Values are means±SEM of 3 independent experiments. Statistical significance assessed by one-way ANOVA followed by Scheffe post-hoc test for multiple comparisons (***P<0.01, *P<0.05 vs LPS).
Treatment of HUVECs with LPS (1 μg/ml) increased ICAM-1 and VCAM-1 mRNA expression. Twenty-four hours after LPS treatment, maximal expression of ICAM-1 and VCAM-1 was attained. To determine whether LPS-stimulated ICAM-1 and VCAM-1 mRNA expression is affected by ginsenoside CK, HUVECs were treated for 1 h with ginsenoside CK (1 μM, 3 μM, and 10 μM) prior to LPS (1 μg/ml) stimulation for 24 h.

The nature of data set [6]: Releasing kinetics of ginsenoside CK from three-layer coated stent (CK DES), FIG. 2. The class given is physicochemical.

T2 sequence (P10635 whole entry): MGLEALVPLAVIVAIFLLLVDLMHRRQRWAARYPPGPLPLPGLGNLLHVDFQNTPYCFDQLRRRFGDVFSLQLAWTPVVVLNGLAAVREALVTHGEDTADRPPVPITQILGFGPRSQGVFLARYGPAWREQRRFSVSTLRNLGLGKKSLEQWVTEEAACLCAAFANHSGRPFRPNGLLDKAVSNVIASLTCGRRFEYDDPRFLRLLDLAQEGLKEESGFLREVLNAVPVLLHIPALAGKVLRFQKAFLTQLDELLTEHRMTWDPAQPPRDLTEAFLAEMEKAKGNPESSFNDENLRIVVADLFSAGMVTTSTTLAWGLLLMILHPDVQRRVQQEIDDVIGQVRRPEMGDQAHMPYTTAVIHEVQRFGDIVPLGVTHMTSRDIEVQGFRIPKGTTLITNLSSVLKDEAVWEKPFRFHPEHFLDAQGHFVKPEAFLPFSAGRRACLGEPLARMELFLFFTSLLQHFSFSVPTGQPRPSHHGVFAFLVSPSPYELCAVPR

For the molecule `CC(C)=CCC[C@](C)(O[C@@H]1O[C@H](CO)[C@@H](O)[C@H](O)[C@H]1O)[C@H]1CC[C@]2(C)[C@@H]1[C@H](O)C[C@@H]1[C@@]3(C)CC[C@H](O)C(C)(C)[C@@H]3CC[C@]12C` [CK, Ginsenoside compound K], the IC50 in data set [1] (pooled human liver microsomes, substrate Bupropion) is 14.8 µM; in data set [2] (pooled human liver microsomes, substrate Dextromethorphan), greater than 50 µM. In data set [1] (ratio of IC50 with −NADPH to IC50 with +NADPH in the 30 min pre-incubation), the “IC50 shift (fold difference)” value is on record as 1.08 fold. Moreover, in data set [2] (50 μM, 30 min pre-incubation in the presence or absence of NADPH), the “inhibition at concentration of 50 μM” value was “did not inhibit”. For the same molecule, the cell viability entry in data set [3] was “did not influence cell viability”. Further, the “LPS-induced IL-6 expression” value in data set [4] is given as “significantly decreased”. Besides, the “LPS-stimulated ICAM-1 mRNA expression” value in data set [5] is on record as “significantly inhibited”. The “amount of residual drug in the stent” value in data set [6] (after 90 days of drug release) is “beyond the detection/quantitation limit”. Also, the “drug released (initial burst)” value in data set [6] (within one month) was roughly 80%.

As a reminder, the IC50 is the concentration at which inhibition is half-maximal. The low end stands for higher potency, the high end for lower potency.
